Source: publication PMC9569450, “Dual Effect of Tryptamine on Prostate Cancer Cell Growth Regulation: A Pilot Study” (International Journal of Molecular Sciences, 2022)

Columns and labels:
[1] = mice; cited from earlier work
PANC-1 cells = test: Transwell migration assay, PANC-1; type: cell-based; conditions: 24 h
Protocol: (§1) Cell migration was evaluated using 8-μm transwell filters (Costar Corning, Schiphol-Rijk, The Netherlands). Cells at a density of 5 × 10^4 were seeded to the upper chamber, and the chamber was filled with FBS-free medium. Cells were incubated overnight to allow for adherence; then, the lower chamber was replaced with 10% FBS medium as a chemo-attractant. Following a 24 h incubation, non-migrating cells on the upper surface of the insert membrane were gently removed by cotton swabs and migrated cells on the lower surface of the insert membrane were fixed by 4% paraformaldehyde and stained with 0.1% crystal violet for 20 min. Migrated cells on each membrane were photographed and counted at 100× magnification field at six random fields.

HepG2 cells = test: Transwell migration assay, HepG2; type: cell-based; conditions: 24 h
Protocol: as §1

PC-3 cells = test: Annexin V-FITC/PI flow cytometry apoptosis assay; type: cell-based, human; conditions: 24 h
Protocol: Cell apoptosis was assessed by Annexin V-FITC and propidium iodide (PI) staining using an Annexin V-FITC apoptosis detection kit (Thermo Fisher Scientific, Carlsbad, CA, USA) according to the manufacturer’s instructions. Briefly, cells were seeded at a density of 1.0 × 10^5 cells/well and pre-incubated for 24 h to allow for adherence before treatment with various concentrations of tryptamine in an FBS-free medium. After 24 h of tryptamine incubation, cells in each well were harvested and centrifuged at 200× g for 5 min. Cells were washed with PBS and centrifuged at 200× g for 5 min. Cells were resuspended in 100 μL binding buffer, followed by staining with 5 μL Annexin V-FITC and 5 μL PI, and incubation on ice in the dark for 15 min after addition of each staining reagent. Subsequently, a 300 μL binding buffer was added to the sample and apoptotic cells were detected by a flow cytometer (NovoCyte; ACEA Biosciences Inc., San Diego, CA, USA).

Structure (SMILES): NCCc1c[nH]c2ccccc12 [Tryptamine]
- median lethal dose (LD50) [1]: ~ 200 mg/kg
- migrated cells reduced by (PANC-1 cells; PANC-1, 0.075 mM): 43%
- percentage of migrated cells (PANC-1 cells; PANC-1, 0.15 mM): 45%
- percentage of migrated cells (PANC-1 cells; PANC-1, 0.3 mM): 27%
- migrated cells compared with the control (HepG2 cells; HepG2, 0.075 mM): no significant difference
- percentage of migrated cells (HepG2 cells; HepG2, 0.15 mM): 77%
- percentage of migrated cells (HepG2 cells; HepG2, 0.3 mM): 55%
- apoptotic cell populations (early and late apoptosis) (PC-3 cells; PC-3, 0.2 mM): 12.1%
- apoptotic cell populations (early and late apoptosis) (PC-3 cells; PC-3, 0.3 mM): 21.4%
